Calls of active or inactive are those of the source. No cut-off for these calls is given here.
Tests used:
[1] = tested on: Staphylococcus epidermidis; experiment: Antibacterial activity against Staphylococcus epidermidis ATCC 12228 at 140 ug/disk after 24 hr by disk diffusion method; assay type: functional
Staphylococcus aureus [2] = experiment: Antibacterial activity against Staphylococcus aureus ATCC 25923 at 20 ug/disc after 24 hr by disk diffusion method; assay type: functional
Pseudomonas aeruginosa [3] = experiment: Antibacterial activity against Pseudomonas aeruginosa ATCC 27853 at 140 ug/disk after 24 hr by disk-diffusion method; assay type: functional, organism-based
Rhodotorula mucilaginosa [4] = experiment: Antifungal activity against Rhodotorula mucilaginosa at 20 ug/disk after 48 hr by disk diffusion method; assay type: functional
Escherichia coli [5] = experiment: Antibacterial activity against Escherichia coli ATCC 25922 at 40 ug/disk after 24 hr by disk-diffusion method; assay type: functional
Candida albicans [6] = experiment: Antifungal activity against Candida albicans ATCC 10231 at 40 ug/disk after 48 hr by disk-diffusion method; assay type: functional; details: ATCC 10231, 48 h, read-out: DIZ
Candida albicans [7] = experiment: Antifungal activity against Candida albicans ATCC 10231 at 140 ug/disk after 48 hr by disk-diffusion method; assay type: functional; details: ATCC 10231, 48 h, read-out: DIZ
Bacillus cereus [8] = experiment: Antibacterial activity against Bacillus cereus NRRL 3711 at 140 ug/disk after 24 hr by disk diffusion method; assay type: functional; details: NRRL 3711, 24 h, read-out: DIZ
Candida albicans [9] = experiment: Antifungal activity against Candida albicans ATCC 10231 at 20 ug/disk after 48 hr by disk-diffusion method; assay type: functional
Pseudomonas aeruginosa [10] = experiment: Antibacterial activity against Pseudomonas aeruginosa ATCC 27853 at 40 ug/disk after 24 hr by disk-diffusion method; assay type: functional, organism-based
Pseudomonas aeruginosa [11] = experiment: Antibacterial activity against Pseudomonas aeruginosa ATCC 27853 at 20 ug/disk after 24 hr by disk-diffusion method; assay type: functional, organism-based
Bacillus cereus [12] = experiment: Antibacterial activity against Bacillus cereus NRRL 3711 at 20 ug/disk after 24 hr by disk diffusion method; assay type: functional
Staphylococcus aureus [13] = experiment: Antibacterial activity against Staphylococcus aureus ATCC 25923 at 140 ug/disc after 24 hr by disk diffusion method; assay type: functional
Aspergillus niger [14] = experiment: Antifungal activity against Aspergillus niger ATCC 10949 at 140 ug/disk after 72 hr by disk diffusion method; assay type: functional
[15] = tested on: Staphylococcus epidermidis; experiment: Antibacterial activity against Staphylococcus epidermidis ATCC 12228 at 20 ug/disk after 24 hr by disk diffusion method; assay type: functional, organism-based
Rhodotorula mucilaginosa [16] = experiment: Antifungal activity against Rhodotorula mucilaginosa at 40 ug/disk after 48 hr by disk diffusion method; assay type: functional
Nocardia [17] = experiment: Antibacterial activity against Nocardia canis at 140 ug/disk after 24 hr by disk diffusion method; assay type: functional
Proteus vulgaris [18] = experiment: Antibacterial activity against Proteus vulgaris NRRL-B-123 at 20 ug/disk after 24 hr by disk diffusion method; assay type: functional, organism-based
Proteus vulgaris [19] = experiment: Antibacterial activity against Proteus vulgaris NRRL-B-123 at 140 ug/disk after 24 hr by disk diffusion method; assay type: functional, organism-based
Nocardia [20] = experiment: Antibacterial activity against Nocardia canis at 20 ug/disk after 24 hr by disk diffusion method; assay type: functional, organism-based
Aspergillus niger [21] = experiment: Antifungal activity against Aspergillus niger ATCC 10949 at 40 ug/disk after 72 hr by disk diffusion method; assay type: functional, organism-based
Aspergillus niger [22] = experiment: Antifungal activity against Aspergillus niger ATCC 10949 at 20 ug/disk after 72 hr by disk diffusion method; assay type: functional, organism-based
Rhodotorula mucilaginosa [23] = experiment: Antifungal activity against Rhodotorula mucilaginosa at 140 ug/disk after 48 hr by disk diffusion method; assay type: functional; details: read-out: DIZ
Nocardia [24] = experiment: Antibacterial activity against Nocardia canis at 40 ug/disk after 24 hr by disk diffusion method; assay type: functional
Staphylococcus aureus [25] = experiment: Antibacterial activity against Staphylococcus aureus ATCC 25923 at 40 ug/disc after 24 hr by disk diffusion method; assay type: functional
Proteus vulgaris [26] = experiment: Antibacterial activity against Proteus vulgaris NRRL-B-123 at 40 ug/disk after 24 hr by disk diffusion method; assay type: functional, organism-based
Escherichia coli [27] = experiment: Antibacterial activity against Escherichia coli ATCC 25922 at 20 ug/disk after 24 hr by disk-diffusion method; assay type: functional
[28] = tested on: Staphylococcus epidermidis; experiment: Antibacterial activity against Staphylococcus epidermidis ATCC 12228 at 40 ug/disk after 24 hr by disk diffusion method; assay type: functional
Bacillus cereus [29] = experiment: Antibacterial activity against Bacillus cereus NRRL 3711 at 40 ug/disk after 24 hr by disk diffusion method; assay type: functional
Escherichia coli [30] = experiment: Antibacterial activity against Escherichia coli ATCC 25922 at 140 ug/disk after 24 hr by disk-diffusion method; assay type: functional
[31] = ATCC 25922, 24 h, read-out: DIZ
[32] = ATCC 25923, 24 h, read-out: DIZ

SMILES | diameter of the inhibition zone (DIZ) (Pseudomonas aeruginosa [3]) | zone of inhibition at 40 µg/disc (Candida albicans [6]) | zone of inhibition at 140 µg/disc (Candida albicans [7]) | zone of inhibition at 140 µg/disc (Bacillus cereus [8]) | diameter of the inhibition zone (DIZ) (Pseudomonas aeruginosa [10]) | diameter of the inhibition zone (DIZ) (Pseudomonas aeruginosa [11]) | diameter of the inhibition zone (DIZ) [15] | diameter of the inhibition zone (DIZ) (Nocardia [17]) | diameter of the inhibition zone (DIZ) (Proteus vulgaris [18]) | diameter of the inhibition zone (DIZ) (Proteus vulgaris [19]) | diameter of the inhibition zone (DIZ) (Nocardia [20]) | diameter of the inhibition zone (DIZ) (Aspergillus niger [21]) | diameter of the inhibition zone (DIZ) (Aspergillus niger [22]) | zone of inhibition at 140 µg/disc (Rhodotorula mucilaginosa [23]) | diameter of the inhibition zone (DIZ) (Nocardia [24]) | diameter of the inhibition zone (DIZ) (Proteus vulgaris [26]) | diameter of the inhibition zone (DIZ) (Escherichia coli [27]) | diameter of the inhibition zone (DIZ) [28] | other results
CC1(C)CC(=O)C2=C(C1)OC1=C(C(=O)CC(C)(C)C1)C2c1cccc(C2C3=C(CC(C)(C)CC3=O)OC3=C2C(=O)CC(C)(C)C3)c1 | inactive | 7 mm | 7 mm | 7 mm | inactive | inactive | inactive | inactive | inactive | inactive | inactive | inactive | inactive | 7 mm | inactive | inactive | inactive | inactive | diameter of the inhibition zone (DIZ) [1]: inactive; diameter of the inhibition zone (DIZ) (Staphylococcus aureus [2]): inactive; diameter of the inhibition zone (DIZ) (Rhodotorula mucilaginosa [4]): inactive; zone of inhibition at 40 µg/disc (Escherichia coli [5]; [31]): 7 mm; diameter of the inhibition zone (DIZ) (Candida albicans [9]): inactive; diameter of the inhibition zone (DIZ) (Bacillus cereus [12]): inactive; diameter of the inhibition zone (DIZ) (Staphylococcus aureus [13]): inactive; diameter of the inhibition zone (DIZ) (Aspergillus niger [14]): inactive; diameter of the inhibition zone (DIZ) (Rhodotorula mucilaginosa [16]): inactive; diameter of the inhibition zone (DIZ) (Staphylococcus aureus [25]): inactive; diameter of the inhibition zone (DIZ) (Bacillus cereus [29]): inactive; zone of inhibition at 140 µg/disc (Escherichia coli [30]; [31]): 8 mm
O=C1CCCC2=C1C(c1ccc(C3C4=C(CCCC4=O)OC4=C3C(=O)CCC4)cc1)C1=C(CCCC1=O)O2 | inactive | 8 mm | 8 mm | 8 mm | inactive | inactive | inactive | inactive | inactive | inactive | inactive | inactive | inactive | 10 mm | inactive | inactive | inactive | inactive | zone of inhibition at 140 µg/disc ([1]; ATCC 12228, 24 h, read-out: DIZ): 7 mm; zone of inhibition at 20 µg/disc (Staphylococcus aureus [2]; [32]): 8 mm; zone of inhibition at 20 µg/disc (Rhodotorula mucilaginosa [4]; read-out: DIZ): 8 mm; diameter of the inhibition zone (DIZ) (Escherichia coli [5]): inactive; zone of inhibition at 20 µg/disc (Candida albicans [9]; ATCC 10231, 48 h, read-out: DIZ): 7 mm; zone of inhibition at 20 µg/disc (Bacillus cereus [12]; NRRL 3711, 24 h, read-out: DIZ): 8 mm; zone of inhibition at 140 µg/disc (Staphylococcus aureus [13]; [32]): 14 mm; zone of inhibition at 140 µg/disc (Aspergillus niger [14]; ATCC 10949, 72 h, read-out: DIZ): 7 mm; zone of inhibition at 40 µg/disc (Rhodotorula mucilaginosa [16]; read-out: DIZ): 9 mm; zone of inhibition at 40 µg/disc (Staphylococcus aureus [25]; [32]): 10 mm; zone of inhibition at 40 µg/disc (Bacillus cereus [29]; NRRL 3711, 24 h, read-out: DIZ): 9 mm; diameter of the inhibition zone (DIZ) (Escherichia coli [30]): inactive

— ChEMBL document CHEMBL3044875, “Synthesis and antimicrobial activity of some bisoctahydroxanthene-1,8-dione derivatives” (2011)
